The text below walks through data of PMC7291858, “An Enhanced Variant Designed From DLP4 Cationic Peptide Against Staphylococcus aureus CVCC 546” (Frontiers in Microbiology, 2020).

Peptide text beside a SMILES is read from it.

Test [1] has as its system Staphylococcus aureus CVCC 546. The test can be described thus: microbe, parasite or virus in culture. Conditions: Table 1; – = no activity. In kind it is cell-based. As to the method:
(§1) The minimal inhibitory concentration (MIC) was evaluated by a microtiter plate assay ([Wiegand et al., 2008]). Serial 2-fold dilutions of test peptides were placed into a 96-well plate containing identical bacterial inoculum and incubated at 37°C for 16∼20 h. Vancomycin was used as antibiotic control. The MIC value was defined as the lowest peptide concentration where no visible growth occurred. All tests were made in triplicate.

For another test, the system named is S. aureus ATCC 43300. In kind it is cell-based, Staphylococcus aureus. The note with it: microtiter, serial 2-fold dilutions, 37°C, 16∼20 h, triplicate; – = no activity. As to the method: as §1

In the case of `CC[C@H](C)[C@@H]1NC(=O)[C@@H]2CSSC[C@@H](C(=O)N[C@@H](CCCNC(=N)N)C(=O)N[C@@H](CCCCN)C(=O)O)NC(=O)[C@H](CC(N)=O)NC(=O)[C@@H]3CSSC[C@H](NC(=O)[C@H](C)NC(=O)[C@H](C)NC(=O)[C@H](Cc4c[nH]cn4)NC(=O)CNC(=O)[C@H](C(C)C)NC(=O)CNC(=O)[C@H](Cc4ccccc4)NC(=O)[C@@H]4CCCN4C(=O)[C@H](CO)NC(=O)[C@H](CC(C)C)NC(=O)[C@H](CC(C)C)NC(=O)[C@H](CC(=O)O)NC(=O)[C@@H](NC(=O)[C@@H](NC(=O)[C@H](C)N)[C@@H](C)O)CSSC[C@H](NC(=O)[C@H](Cc4c[nH]c5ccccc45)NC(=O)CNC(=O)CNC(=O)[C@H](CCCNC(=N)N)NC(=O)[C@H](CCCCN)NC(=O)CNC(=O)[C@H](CCCNC(=N)N)NC(=O)[C@H](C)NC1=O)C(=O)N[C@@H](CC(=O)O)C(=O)NCC(=O)N[C@@H](CCCNC(=N)N)C(=O)N[C@@H](C)C(=O)N[C@@H](C(C)C)C(=O)N3)C(=O)N[C@@H](C)C(=O)N[C@@H](C)C(=O)N[C@@H](Cc1c[nH]cn1)C(=O)N2` [ID16] (HELM PEPTIDE1{A.T.C.D.L.L.S.P.F.G.V.G.H.A.A.C.A.A.H.C.I.A.R.G.K.R.G.G.W.C.D.G.R.A.V.C.N.C.R.K}$PEPTIDE1,PEPTIDE1,3:R3-30:R3|PEPTIDE1,PEPTIDE1,16:R3-36:R3|PEPTIDE1,PEPTIDE1,20:R3-38:R3$$$V2.0; N-terminus and C-terminus assumed; bridges inferred), the MIC in test [1] is 16. Further, in the test on S. aureus ATCC 43300, the “A1 (MIC against S. aureus ATCC 43300)” value was found to be 8 µg/mL.

For `CC[C@H](C)[C@@H]1NC(=O)[C@@H]2CSSC[C@@H](C(=O)N[C@@H](CCCNC(=N)N)C(=O)N[C@@H](CCCCN)C(=O)O)NC(=O)[C@H](CC(N)=O)NC(=O)[C@@H]3CSSC[C@H](NC(=O)[C@H](C)NC(=O)[C@H](C)NC(=O)[C@H](Cc4c[nH]cn4)NC(=O)CNC(=O)[C@H](C(C)C)NC(=O)[C@H](CCCCN)NC(=O)[C@H](Cc4ccccc4)NC(=O)[C@@H]4CCCN4C(=O)[C@H](CO)NC(=O)[C@H](CC(C)C)NC(=O)[C@H](CC(C)C)NC(=O)[C@H](CC(=O)O)NC(=O)[C@@H](NC(=O)[C@@H](NC(=O)[C@H](C)N)[C@@H](C)O)CSSC[C@H](NC(=O)[C@H](Cc4c[nH]c5ccccc45)NC(=O)CNC(=O)CNC(=O)[C@H](CCCNC(=N)N)NC(=O)[C@H](CCCCN)NC(=O)CNC(=O)[C@H](CCCNC(=N)N)NC(=O)[C@H](C)NC1=O)C(=O)N[C@@H](CC(=O)O)C(=O)N[C@@H](CCCCN)C(=O)N[C@@H](CCCNC(=N)N)C(=O)N[C@@H](C)C(=O)N[C@@H](C(C)C)C(=O)N3)C(=O)N[C@@H](C)C(=O)N[C@@H](CC(C)C)C(=O)N[C@@H](Cc1c[nH]cn1)C(=O)N2` [ID27] (HELM PEPTIDE1{A.T.C.D.L.L.S.P.F.K.V.G.H.A.A.C.A.L.H.C.I.A.R.G.K.R.G.G.W.C.D.K.R.A.V.C.N.C.R.K}$PEPTIDE1,PEPTIDE1,3:R3-30:R3|PEPTIDE1,PEPTIDE1,16:R3-36:R3|PEPTIDE1,PEPTIDE1,20:R3-38:R3$$$V2.0; N-terminus and C-terminus assumed; bridges inferred), in test [1], the MIC stood at 8. The “A1 (MIC against S. aureus ATCC 43300)” value with S. aureus ATCC 43300 turned out to be 8 µg/mL.

`CC[C@H](C)[C@@H]1NC(=O)[C@H](C)NC(=O)[C@H](CCCNC(=N)N)NC(=O)[C@H](CCCCN)NC(=O)[C@H](CC(=O)O)NC(=O)[C@@H]2CSSC[C@H](NC(=O)[C@@H](NC(=O)[C@H](C)N)[C@@H](C)O)C(=O)N[C@@H](CC(=O)O)C(=O)N[C@@H](CC(C)C)C(=O)N[C@@H](CC(C)C)C(=O)N[C@@H](CO)C(=O)N3CCC[C@H]3C(=O)N[C@@H](Cc3ccccc3)C(=O)N[C@@H](CCCCN)C(=O)N[C@@H](C(C)C)C(=O)NCC(=O)N[C@@H](Cc3c[nH]cn3)C(=O)N[C@@H](C)C(=O)N[C@@H](C)C(=O)N[C@H]3CSSC[C@H](NC1=O)C(=O)N[C@@H](CC(N)=O)C(=O)N[C@H](C(=O)N[C@@H](CCCNC(=N)N)C(=O)N[C@@H](CCCCN)C(=O)O)CSSC[C@H](NC(=O)[C@H](Cc1c[nH]cn1)NC(=O)[C@H](C)NC(=O)[C@H](C)NC3=O)C(=O)N[C@@H]([C@@H](C)CC)C(=O)N[C@@H](C)C(=O)N[C@@H](CCCNC(=N)N)C(=O)NCC(=O)N[C@@H](CCCCN)C(=O)N[C@@H](CCCNC(=N)N)C(=O)NCC(=O)NCC(=O)N[C@@H](Cc1c[nH]c3ccccc13)C(=O)N2` [ID30] (HELM PEPTIDE1{A.T.C.D.L.L.S.P.F.K.V.G.H.A.A.C.A.A.H.C.I.A.R.G.K.R.G.G.W.C.D.K.R.A.I.C.N.C.R.K}$PEPTIDE1,PEPTIDE1,3:R3-30:R3|PEPTIDE1,PEPTIDE1,16:R3-36:R3|PEPTIDE1,PEPTIDE1,20:R3-38:R3$$$V2.0; N-terminus and C-terminus assumed; bridges inferred) returned an MIC in test [1] of 32. Moreover, the “A1 (MIC against S. aureus ATCC 43300)” value in the test on S. aureus ATCC 43300 came to 16 µg/mL.

`CC[C@H](C)[C@@H]1NC(=O)[C@@H]2CSSC[C@@H](C(=O)N[C@@H](CCCNC(=N)N)C(=O)N[C@@H](CC(N)=O)C(=O)O)NC(=O)[C@H](CC(N)=O)NC(=O)[C@@H]3CSSC[C@H](NC(=O)[C@H](C)NC(=O)[C@H](C)NC(=O)[C@H](Cc4c[nH]cn4)NC(=O)CNC(=O)[C@H](C(C)C)NC(=O)CNC(=O)[C@H](Cc4ccccc4)NC(=O)[C@@H]4CCCN4C(=O)[C@H](CO)NC(=O)[C@H](CC(C)C)NC(=O)[C@H](CC(C)C)NC(=O)[C@H](CC(=O)O)NC(=O)[C@@H](NC(=O)[C@@H](NC(=O)[C@H](C)N)[C@@H](C)O)CSSC[C@H](NC(=O)[C@H](Cc4c[nH]c5ccccc45)NC(=O)CNC(=O)CNC(=O)[C@H](CCCNC(=N)N)NC(=O)[C@H](CCCCN)NC(=O)CNC(=O)[C@H](CCCNC(=N)N)NC(=O)[C@H](C)NC1=O)C(=O)N[C@@H](CC(=O)O)C(=O)N[C@@H](CCCCN)C(=O)N[C@@H](CCCNC(=N)N)C(=O)N[C@@H](C)C(=O)N[C@@H](C(C)C)C(=O)N3)C(=O)N[C@@H](C)C(=O)N[C@@H](C)C(=O)N[C@@H](Cc1c[nH]cn1)C(=O)N2` [ID17] (HELM PEPTIDE1{A.T.C.D.L.L.S.P.F.G.V.G.H.A.A.C.A.A.H.C.I.A.R.G.K.R.G.G.W.C.D.K.R.A.V.C.N.C.R.N}$PEPTIDE1,PEPTIDE1,3:R3-30:R3|PEPTIDE1,PEPTIDE1,16:R3-36:R3|PEPTIDE1,PEPTIDE1,20:R3-38:R3$$$V2.0; N-terminus and C-terminus assumed; bridges inferred): the MIC in test [1] stood at 64. Moreover, the “A1 (MIC against S. aureus ATCC 43300)” value in the test with S. aureus ATCC 43300 was found to be 16 µg/mL.

For `CC[C@H](C)[C@@H]1NC(=O)[C@@H]2CSSC[C@@H](C(=O)N[C@@H](CCCNC(=N)N)C(=O)N[C@@H](CC(N)=O)C(=O)O)NC(=O)[C@H](CC(N)=O)NC(=O)[C@@H]3CSSC[C@H](NC(=O)[C@H](C)NC(=O)[C@H](C)NC(=O)[C@H](Cc4c[nH]cn4)NC(=O)CNC(=O)[C@H](C(C)C)NC(=O)[C@H](CCCCN)NC(=O)[C@H](Cc4ccccc4)NC(=O)[C@@H]4CCCN4C(=O)[C@H](CO)NC(=O)[C@H](CC(C)C)NC(=O)[C@H](CC(C)C)NC(=O)[C@H](CC(=O)O)NC(=O)[C@@H](NC(=O)[C@@H](NC(=O)[C@H](C)N)[C@@H](C)O)CSSC[C@H](NC(=O)[C@H](Cc4c[nH]c5ccccc45)NC(=O)CNC(=O)CNC(=O)[C@H](CCCNC(=N)N)NC(=O)[C@H](CCCCN)NC(=O)CNC(=O)[C@H](CCCNC(=N)N)NC(=O)[C@H](C)NC1=O)C(=O)N[C@@H](CC(=O)O)C(=O)NCC(=O)N[C@@H](CCCNC(=N)N)C(=O)N[C@@H](C)C(=O)N[C@@H](C(C)C)C(=O)N3)C(=O)N[C@@H](C)C(=O)N[C@@H](C)C(=O)N[C@@H](Cc1c[nH]cn1)C(=O)N2` [ID20] (HELM PEPTIDE1{A.T.C.D.L.L.S.P.F.K.V.G.H.A.A.C.A.A.H.C.I.A.R.G.K.R.G.G.W.C.D.G.R.A.V.C.N.C.R.N}$PEPTIDE1,PEPTIDE1,3:R3-30:R3|PEPTIDE1,PEPTIDE1,16:R3-36:R3|PEPTIDE1,PEPTIDE1,20:R3-38:R3$$$V2.0; N-terminus and C-terminus assumed; bridges inferred), the “A1 (MIC against S. aureus ATCC 43300)” value in the test with S. aureus ATCC 43300 is 16 µg/mL.

Take `CC[C@H](C)[C@@H]1NC(=O)[C@@H]2CSSC[C@@H](C(=O)N[C@@H](CCCNC(=N)N)C(=O)N[C@@H](CCCCN)C(=O)O)NC(=O)[C@H](CC(N)=O)NC(=O)[C@@H]3CSSC[C@H](NC(=O)[C@H](C)NC(=O)[C@H](C)NC(=O)[C@H](Cc4c[nH]cn4)NC(=O)CNC(=O)[C@H](C(C)C)NC(=O)CNC(=O)[C@H](Cc4ccccc4)NC(=O)[C@@H]4CCCN4C(=O)[C@H](CO)NC(=O)[C@H](CC(C)C)NC(=O)[C@H](CC(C)C)NC(=O)[C@H](CC(=O)O)NC(=O)[C@@H](NC(=O)[C@@H](NC(=O)[C@H](C)N)[C@@H](C)O)CSSC[C@H](NC(=O)[C@H](Cc4c[nH]c5ccccc45)NC(=O)CNC(=O)CNC(=O)[C@H](CCCNC(=N)N)NC(=O)[C@H](CCCCN)NC(=O)CNC(=O)[C@H](CCCNC(=N)N)NC(=O)[C@H](C)NC1=O)C(=O)N[C@@H](CC(=O)O)C(=O)N[C@@H](CCCCN)C(=O)N[C@@H](CCCNC(=N)N)C(=O)N[C@@H](C)C(=O)N[C@@H](C(C)C)C(=O)N3)C(=O)N[C@@H](C)C(=O)N[C@@H](C)C(=O)N[C@@H](Cc1c[nH]cn1)C(=O)N2` [ID11] (HELM PEPTIDE1{A.T.C.D.L.L.S.P.F.G.V.G.H.A.A.C.A.A.H.C.I.A.R.G.K.R.G.G.W.C.D.K.R.A.V.C.N.C.R.K}$PEPTIDE1,PEPTIDE1,3:R3-30:R3|PEPTIDE1,PEPTIDE1,16:R3-36:R3|PEPTIDE1,PEPTIDE1,20:R3-38:R3$$$V2.0; N-terminus and C-terminus assumed; bridges inferred): in the test on S. aureus ATCC 43300, the “A1 (MIC against S. aureus ATCC 43300)” value came out at 16 µg/mL.
